Laboratory results published in patent publication US20260234135A1, “CRYSTALLINE FORMS OR SALTS OF A DEUTERATED COMPOUND” (ALEBUND PHARMACEUTICALS (HONG KONG) LIMITED, priority 2023, published 2026).
Where two headings read alike, the source gives them in different places.

Key:
[1] = Hygroscopicity evaluation by DVS at 25° C.; assay type: physicochemical; details: for Water uptake up to 80% RH: DVS, 25° C.; for Form change after DVS test: XRPD after DVS
Procedure: DVS was measured via a SMS (Surface Measurement Systems) DVS Intrinsic. The relative humidity at 25° C. were calibrated against deliquescence point of LiCl, Mg(NO3)2 and KCl.

Structure (SMILES): [2H]C([2H])(Cc1nc(-c2ccccc2)oc1C)Oc1ccc(C[C@H](OC)C(=O)[O-])c2sccc12.[K+] [K salt Form C]
- Water uptake up to 80% RH [1]: 12.0%
- Form change after DVS test [1]: form change was observed
- Area (%) of impurity peak RRT 1.34 (40° C./75% RH, 2 weeks): 0.24%
- Area (%) of impurity peak RRT 1.34 (40° C./75% RH, 4 weeks): 0.25%
- Area (%) of impurity peak RRT 1.34 (40° C./75% RH, 8 weeks): 0.25%
- HPLC Purity (area %), main peak RRT 1.00 (40° C./75% RH/open, 2 weeks): 99.76 area %
- HPLC Reults of initial (%) (40° C./75% RH/open, 2 weeks): 100.01%
- HPLC Purity (area %), main peak RRT 1.00 (40° C./75% RH/open, 4 weeks): 99.75 area %
- HPLC Reults of initial (%) (40° C./75% RH/open, 4 weeks): 100.00%
- HPLC Purity (area %), main peak RRT 1.00 (40° C./75% RH/open, 8 weeks): 99.75 area %
- HPLC Reults of initial (%) (40° C./75% RH/open, 8 weeks): 100.00%
- Area (%) of impurity peak RRT 0.88 (60° C., 2 weeks): 0.10%
- Area (%) of impurity peak RRT 1.14 (60° C., 2 weeks): 0.07%
- Area (%) of impurity peak RRT 1.34 (60° C., 2 weeks): 0.26%
- Area (%) of impurity peak RRT 0.88 (60° C., 4 weeks): 0.08%
- Area (%) of impurity peak RRT 1.14 (60° C., 4 weeks): 0.04%
- Area (%) of impurity peak RRT 1.34 (60° C., 4 weeks): 0.24%
- Area (%) of impurity peak RRT 0.88 (60° C., 8 weeks): 0.09%
- Area (%) of impurity peak RRT 1.34 (60° C., 8 weeks): 0.24%
- Form or purity change after storage (60° C./close and 40° C./75% RH/open for 2/4/8 weeks): No purity decrease but form change
- HPLC Purity (area %), main peak RRT 1.00 (60° C./close, 2 weeks): 99.57 area %
- HPLC Reults of initial (%) (60° C./close, 2 weeks): 99.82%
- HPLC Purity (area %), main peak RRT 1.00 (60° C./close, 4 weeks): 99.64 area %
- HPLC Reults of initial (%) (60° C./close, 4 weeks): 99.89%
- HPLC Purity (area %), main peak RRT 1.00 (60° C./close, 8 weeks): 99.67 area %
- HPLC Reults of initial (%) (60° C./close, 8 weeks): 99.92%
- Area (%) of impurity peak RRT 1.34 (Initial): 0.25%
- HPLC Purity (area %), main peak RRT 1.00 (Initial): 99.75 area %

Structure (SMILES): [2H]C([2H])(Cc1nc(-c2ccccc2)oc1C)Oc1ccc(C[C@H](OC)C(=O)[O-])c2sccc12.[Na+] [Na salt Form A]
- Water uptake up to 80% RH [1]: 5.5%
- Form change after DVS test [1]: form change was observed
- Area (%) of impurity peak RRT 0.89 (40° C./75% RH, 2 weeks): 0.04%
- Area (%) of impurity peak RRT 1.14 (40° C./75% RH, 2 weeks): 0.03%
- Area (%) of impurity peak RRT 1.34 (40° C./75% RH, 2 weeks): 0.23%
- Area (%) of impurity peak RRT 0.89 (40° C./75% RH, 4 weeks): 0.07%
- Area (%) of impurity peak RRT 1.34 (40° C./75% RH, 4 weeks): 0.23%
- Area (%) of impurity peak RRT 0.89 (40° C./75% RH, 8 weeks): 0.05%
- Area (%) of impurity peak RRT 1.34 (40° C./75% RH, 8 weeks): 0.24%
- HPLC Purity (area %), main peak RRT 1.00 (40° C./75% RH/open, 2 weeks): 99.71 area %
- HPLC Reults of initial (%) (40° C./75% RH/open, 2 weeks): 100.03%
- HPLC Purity (area %), main peak RRT 1.00 (40° C./75% RH/open, 4 weeks): 99.69 area %
- HPLC Reults of initial (%) (40° C./75% RH/open, 4 weeks): 100.02%
- HPLC Purity (area %), main peak RRT 1.00 (40° C./75% RH/open, 8 weeks): 99.71 area %
- HPLC Reults of initial (%) (40° C./75% RH/open, 8 weeks): 100.03%
- Form or purity change after storage (60° C. for 8 weeks): Slightly purity decrease and form change
- Area (%) of impurity peak RRT 0.58 (60° C., 2 weeks): 0.10%
- Area (%) of impurity peak RRT 0.79 (60° C., 2 weeks): 0.07%
- Area (%) of impurity peak RRT 0.81 (60° C., 2 weeks): 0.10%
- Area (%) of impurity peak RRT 0.89 (60° C., 2 weeks): 0.08%
- Area (%) of impurity peak RRT 0.91 (60° C., 2 weeks): 0.05%
- Area (%) of impurity peak RRT 1.14 (60° C., 2 weeks): 0.05%
- Area (%) of impurity peak RRT 1.34 (60° C., 2 weeks): 0.22%
- Area (%) of impurity peak RRT 0.29 (60° C., 4 weeks): 0.07%
- Area (%) of impurity peak RRT 0.58 (60° C., 4 weeks): 0.16%
- Area (%) of impurity peak RRT 0.63 (60° C., 4 weeks): 0.05%
- Area (%) of impurity peak RRT 0.79 (60° C., 4 weeks): 0.13%
- Area (%) of impurity peak RRT 0.81 (60° C., 4 weeks): 0.20%
- Area (%) of impurity peak RRT 0.86 (60° C., 4 weeks): 0.06%
- Area (%) of impurity peak RRT 0.89 (60° C., 4 weeks): 0.08%
- Area (%) of impurity peak RRT 0.91 (60° C., 4 weeks): 0.10%
- Area (%) of impurity peak RRT 0.95 (60° C., 4 weeks): 0.05%
- Area (%) of impurity peak RRT 1.34 (60° C., 4 weeks): 0.20%
- Area (%) of impurity peak RRT 0.29 (60° C., 8 weeks): 0.11%
- Area (%) of impurity peak RRT 0.58 (60° C., 8 weeks): 0.25%
- Area (%) of impurity peak RRT 0.63 (60° C., 8 weeks): 0.12%
- Area (%) of impurity peak RRT 0.79 (60° C., 8 weeks): 0.19%
- Area (%) of impurity peak RRT 0.81 (60° C., 8 weeks): 0.35%
- Area (%) of impurity peak RRT 0.86 (60° C., 8 weeks): 0.06%
- Area (%) of impurity peak RRT 0.91 (60° C., 8 weeks): 0.21%
- Area (%) of impurity peak RRT 0.95 (60° C., 8 weeks): 0.09%
- Area (%) of impurity peak RRT 1.34 (60° C., 8 weeks): 0.20%
- HPLC Purity (area %), main peak RRT 1.00 (60° C./close, 2 weeks): 99.33 area %
- HPLC Reults of initial (%) (60° C./close, 2 weeks): 99.65%
- HPLC Purity (area %), main peak RRT 1.00 (60° C./close, 4 weeks): 98.91 area %
- HPLC Reults of initial (%) (60° C./close, 4 weeks): 99.23%
- HPLC Purity (area %), main peak RRT 1.00 (60° C./close, 8 weeks): 98.43 area %
- HPLC Reults of initial (%) (60° C./close, 8 weeks): 98.75%
- Area (%) of impurity peak RRT 0.89 (Initial): 0.05%
- Area (%) of impurity peak RRT 1.14 (Initial): 0.05%
- Area (%) of impurity peak RRT 1.34 (Initial): 0.22%
- HPLC Purity (area %), main peak RRT 1.00 (Initial): 99.68 area %
- Form (XRPD after 40° C./75% RH/open, 2/4/8 weeks): New form
